Laboratory results taken from ChEMBL document CHEMBL1201862, “PubChem BioAssay data set” (2004).
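Values below derive from 48-hour exposures of cells grown in 96-well plates, with endpoints linearly interpolated between the two concentrations bracketing the appropriate inhibition level. GI50: concentration for 50% inhibition of growth.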 Calls of active or inactive are those of the source. Rule as the data show it: active = GI50 up to about 1.1 µM and inactive = higher.

What was measured:
Assay in all cases: NCI tumour cell line growth inhibition, 48 h
HOP-18 = tested on: HOP-18
DLD-1 = tested on: DLD-1
M19-MEL = tested on: M19-MEL
KM-20L2 = tested on: KM-20L2
DMS-114 = tested on: DMS-114
XF498 = tested on: XF498
SNB-78 = tested on: SNB-78
DMS-273 = tested on: DMS-273
RXF 631 = tested on: RXF 631

SMILES	GI50 (HOP-18)	GI50 (DLD-1)	GI50 (M19-MEL)	GI50 (KM-20L2)	GI50 (DMS-114)	GI50 (XF498)	GI50 (SNB-78)	GI50 (DMS-273)	GI50 (RXF 631)
CC(Oc1ccc2c(-c3ccccc3)cc(=O)oc2c1)C(=O)O (stereo unspecified)	> 100 µM (inactive)	> 100 µM (inactive)	> 100 µM (inactive)	> 100 µM (inactive)	> 100 µM (inactive)	> 100 µM (inactive)	> 100 µM (inactive)	–	–
O=c1ccn([C@@H]2C[C@H](CO)C[S+]([O-])C2)c(=O)[nH]1 (stereo partly specified)	> 100 µM (inactive)	> 100 µM (inactive)	> 100 µM (inactive)	> 100 µM (inactive)	> 100 µM (inactive)	–	–	> 100 µM (inactive)	–
C=CC1(NS(=O)(=O)c2ccc(C)cc2)CCC(C(C)(C)C)CC1 (stereo unspecified)	37.5 µM (inactive)	> 100 µM (inactive)	> 100 µM (inactive)	> 100 µM (inactive)	27 µM (inactive)	–	30.7 µM (inactive)	43.5 µM (inactive)	–
NC(=O)CC(N/C=C1/N=C(c2ccccc2)OC1=O)C(=O)O (stereo unspecified)	> 100 µM (inactive)	> 100 µM (inactive)	> 100 µM (inactive)	> 100 µM (inactive)	> 100 µM (inactive)	–	> 100 µM (inactive)	> 100 µM (inactive)	> 100 µM (inactive)
COc1cc([C@@H]2c3cc4c(cc3C(N)C3COC(=O)[C@@H]32)OCO4)cc(OC)c1O (stereo partly specified)	> 100 µM (inactive)	0.377 µM (active)	0.334 µM (active)	0.176 µM (active)	0.245 µM (active)	–	–	–	0.178 µM (active)
COc1ccc(/C=C2\C(=O)N(NC(C)=O)c3ccccc32)cc1	> 100 µM (inactive)	68.4 µM (inactive)	> 100 µM (inactive)	> 100 µM (inactive)	77.3 µM (inactive)	> 100 µM (inactive)	> 100 µM (inactive)	99.1 µM (inactive)	> 100 µM (inactive)
CN(CCCCN)c1ccc2c(=O)[nH][nH]c(=O)c2c1	> 100 µM (inactive)	> 100 µM (inactive)	–	–	> 100 µM (inactive)	> 100 µM (inactive)	> 100 µM (inactive)	> 100 µM (inactive)	> 10 µM (inactive)
COc1cc2c(cc1O)[C@@]1(Cc3ccc(OC)c(OC)c3)CCC(=O)N1CC2	31.3 µM (inactive)	> 100 µM (inactive)	> 100 µM (inactive)	> 100 µM (inactive)	> 100 µM (inactive)	–	> 100 µM (inactive)	> 100 µM (inactive)	–
CN1N=C2NCCNC3=NN(C)/C(=N/CC/N=C/1S2)S3	> 100 µM (inactive)	> 100 µM (inactive)	> 100 µM (inactive)	> 100 µM (inactive)	–	–	> 100 µM (inactive)	> 100 µM (inactive)	–
COc1cccc2c1C(=O)c1c(O)c3c(c(O)c1C2=O)C[C@@](O)(C(C)=O)C[C@@H]3OC1CC([N+]([O-])(Cc2ccccc2)Cc2ccccc2)C(O)C(C)O1 (stereo partly specified)	1.58 µM (inactive)	1.29 µM (inactive)	1.43 µM (inactive)	1.55 µM (inactive)	1.33 µM (inactive)	1.23 µM (inactive)	–	–	0.428 µM (active)
CCCCCCCCCCNC(=S)OC	> 100 µM (inactive)	36.8 µM (inactive)	29 µM (inactive)	32.7 µM (inactive)	15.6 µM (inactive)	–	53.3 µM (inactive)	51.5 µM (inactive)	62.1 µM (inactive)
NC(CCCNc1cccc(O)c1)C(=O)O (stereo unspecified)	> 100 µM (inactive)	> 100 µM (inactive)	> 100 µM (inactive)	> 100 µM (inactive)	> 100 µM (inactive)	–	> 100 µM (inactive)	> 100 µM (inactive)	–
CC1(C)C(c2ccccc2)=NN(O)c2ccccc21	> 100 µM (inactive)	> 100 µM (inactive)	> 100 µM (inactive)	> 100 µM (inactive)	–	–	> 100 µM (inactive)	> 100 µM (inactive)	–
CC1CCN(CCC(=O)CC(c2ccccc2)c2c(O)c3ccccc3oc2=O)CC1 (stereo unspecified)	–	> 100 µM (inactive)	> 100 µM (inactive)	> 100 µM (inactive)	> 100 µM (inactive)	> 100 µM (inactive)	34.4 µM (inactive)	> 100 µM (inactive)	> 100 µM (inactive)
CCN(CC)CCC1CC/C(=C\c2ccc(OC)cc2)C1=O (stereo unspecified)	> 100 µM (inactive)	> 100 µM (inactive)	54.8 µM (inactive)	30.3 µM (inactive)	38.6 µM (inactive)	49.8 µM (inactive)	81.1 µM (inactive)	> 100 µM (inactive)	–
O=C1C(=Cc2ccc([N+](=O)[O-])o2)C(=O)N(CCc2ccccc2)S(=O)(=O)N1CCc1ccccc1	42.2 µM (inactive)	17.6 µM (inactive)	17.7 µM (inactive)	> 100 µM (inactive)	–	20.4 µM (inactive)	26.1 µM (inactive)	32.7 µM (inactive)	–
CC(C)(c1ccccc1)c1ccc(OC#N)cc1	> 100 µM (inactive)	> 44.5 µM (inactive)	> 60.1 µM (inactive)	> 60.3 µM (inactive)	28.4 µM (inactive)	44.6 µM (inactive)	> 100 µM (inactive)	17 µM (inactive)	–
C=C[C@@]1(O)CCCC2=C(C(=O)OCC)CC[C@]21C	99.8 µM (inactive)	> 100 µM (inactive)	> 100 µM (inactive)	–	44 µM (inactive)	–	–	37.5 µM (inactive)	–
CC(C)Cc1cc(CCC(=O)Nc2ccccc2[N+](=O)[O-])nc(NC#N)n1	> 100 µM (inactive)	> 100 µM (inactive)	> 100 µM (inactive)	> 100 µM (inactive)	> 100 µM (inactive)	> 100 µM (inactive)	–	–	–
Nc1ccccc1Nc1ccccc1C(=O)[O-].Nc1ccccc1Nc1ccccc1C(=O)[O-].[Zn+2]	–	–	–	> 100 µM (inactive)	–	28.1 µM (inactive)	–	–	–
C[C@]1(CO)CCC[C@@]2(C)C1CC[C@H]1CC3C[C@]12CC[C@]3(C)O (stereo partly specified)	–	32.4 µM (inactive)	–	> 100 µM (inactive)	40.2 µM (inactive)	47.1 µM (inactive)	27.1 µM (inactive)	> 100 µM (inactive)	42.3 µM (inactive)
CCOC(=O)Oc1c(OC)cc(C(=O)NC2CCc3cc(OC)c(OC)c(OC)c3-c3ccc(SC)c(=O)cc32)cc1OC (stereo unspecified)	–	0.0723 µM (active)	0.047 µM (active)	0.0853 µM (active)	0.0261 µM (active)	0.0681 µM (active)	0.0489 µM (active)	< 0.007 µM (active)	–
O=C1CCCN(c2ccccc2)N1	–	–	> 100 µM (inactive)	> 100 µM (inactive)	> 100 µM (inactive)	–	–	> 100 µM (inactive)	> 100 µM (inactive)
COc1cc2c[n+](C)c3c4cc(OC)c(OC)cc4c(OCCCCCCCCOc4cc5c6cc(OC)c(OC)cc6c[n+](C)c5c5cc(OC)c(OC)cc45)cc3c2cc1OC	> 100 µM (inactive)	> 100 µM (inactive)	53.1 µM (inactive)	80 µM (inactive)	22.1 µM (inactive)	> 100 µM (inactive)	> 100 µM (inactive)	20 µM (inactive)	–
O=C1c2ccccc2C(=O)c2c1cc(S(=O)(=O)O)c(O)c2O [Alizarin Red S]	–	> 100 µM (inactive)	> 100 µM (inactive)	–	> 100 µM (inactive)	16.7 µM (inactive)	> 100 µM (inactive)	–	> 100 µM (inactive)
CN1C(=O)C(=O)c2cc3c(c4c2c1cc1ccccc14)OCO3 [CEPHARADIONE A]	42.9 µM (inactive)	31.2 µM (inactive)	28.4 µM (inactive)	39.4 µM (inactive)	31.6 µM (inactive)	> 100 µM (inactive)	7.83 µM (inactive)	22.9 µM (inactive)	–
